The data set can be described thus: in vitro. The conditions noted are these: human, hela cells, % viability.

A word on the viability: it is a read-out of living cells in per cent, often relative to untreated cells.

On to `O=C(Nc1cc(Oc2cccnc2)cc([N+](=O)[O-])c1)c1cc2nc(-c3ccco3)cc(C(F)(F)F)n2n1` [CBK262534], for which the viability at 28.5 h, 10 µM came to 110%.
Next, `O=C(O)CNC(=O)/C(=C/c1ccc(Br)cc1)NC(=O)c1ccc(Br)o1` [CBK262537]: 80.1%.
With `Cc1cc2nc3s/c(=C\c4ccc(-c5ccc(O)c(C(=O)O)c5)o4)c(=O)n3c2cc1C` [CBK262538] the figure was 100%; with `O=[N+]([O-])c1cc2c(cc1C1NN=C(c3ccccc3)S1)OCO2` (stereo not drawn) [CBK262540], 112%; with `COc1nc(NCCN2CCOCC2)nc(Nc2ccc(Cl)cc2)n1` [CBK262541], 102%.
Next, `Cn1c(SCC(=O)c2ccc(O)c(O)c2)nnc1-c1ccccc1` [CBK262544]: 81.5%; `N#C/C(=C\c1cn(Cc2ccc(Cl)cc2Cl)nc1-c1ccccc1)c1nc2ccccc2[nH]1` [CBK262545]: 87.3%.
Take `O=C(CSc1nc2ccccc2s1)OCc1ccc([N+](=O)[O-])cc1` [CBK262547]: the viability at 28.5 h, 10 µM came to 91.1%.
Turning to `CCOC(=O)c1c(NC(=O)CN2CCOCC2)sc2c1CCC2` [CBK262548], the viability at 28.5 h, 10 µM was found to be 102%.
Regarding `O=c1/c(=C/c2ccc3c(c2)OCO3)sc2nc3cc(Br)cnc3n12` [CBK262550], the viability at 28.5 h, 10 µM was determined as 106%.
For `COCc1cc(C)nc(NCCO)c1C#N` [CBK262556], the viability at 28.5 h, 10 µM was 96.6%.
Next, `O=C(CCCN1C(=O)c2cccc3cccc(c23)C1=O)Nc1cccnc1` [CBK262560]: 81.5%.
`CC1(C)Cc2ccccc2C(NCC(=O)O)=N1` [CBK262562]: the viability at 28.5 h, 10 µM came out at 83%.
Take `CCCCSc1nnc2c(n1)OC(/C=C/c1ccc([N+](=O)[O-])o1)Nc1ccccc1-2` (stereo not drawn) [CBK262565]: the viability at 28.5 h, 10 µM is 101%.
In the case of `O=C(O)c1ccccc1-c1ccc(/C=C2\S/C(=N\c3ccccc3)N(c3ccccc3)C2=O)o1` [CBK262566], the viability at 28.5 h, 10 µM stood at 101%.
With `O=C(Nc1cc(Oc2ccc(F)cc2)cc(Oc2cccnc2)c1)c1nn2c(C(F)(F)F)cc(-c3cccs3)nc2c1Cl` [CBK262568] the figure was 93.1%; with `OC(Cn1c(Cc2ccccc2)nc2ccccc21)Cn1c2ccccc2c2ccccc21` (stereo not drawn) [CBK262570], 95.2%.
With `CN1CCN(c2nc3c(N)ncn(CC(O)CO)c-3n2)CC1` (stereo not drawn) [CBK262571] the figure was 108%; with `Cc1ccccc1NC(=O)c1c(NC(=O)Cc2ccccc2)sc2c1CCCC2` [CBK262572], 108%.
With `NNC(=O)/C(=C\c1cccc([N+](=O)[O-])c1)NC(=O)c1ccc(Br)o1` [CBK262573] the figure was 107%.
In the case of `Nc1nonc1C(=O)NCCNc1ccc([N+](=O)[O-])cc1` [CBK262577], the viability at 28.5 h, 10 µM came out at 104%.
With `O=C(O)CCn1c2ccccc2c2cc(I)ccc21` [CBK262578] the figure was 97.5%.
Turning to `COc1cc([N+](=O)[O-])ccc1-c1ccc(/C=c2\sc3nc4cc(Br)cnc4n3c2=O)o1` [CBK262579], the viability at 28.5 h, 10 µM was 103%.
With `O=C(NCC1c2ccccc2CCN1C(=O)CN1C(=O)c2ccccc2C1=O)C1CCCCC1` (stereo not drawn) [CBK262582] the figure was 90.6%; with `CCOC(=O)c1c(NC(=O)Cn2cnc([N+](=O)[O-])n2)sc2c1CCCC2` [CBK262583], 88.4%; with `O=C(Nc1cc(Oc2cncc(Cl)c2)cc([N+](=O)[O-])c1)c1nn2c(C(F)(F)F)cc(-c3cccs3)nc2c1Cl` [CBK262585], 94.9%.
Next, `CN1CCc2c(sc3nc(SCC(=O)c4ccccc4)n(-c4ccccc4)c(=O)c23)C1` [CBK262586]: 85.8%.
Next, `CSc1nc(N/N=C/c2ccc(Cl)cc2)c2c3c(sc2n1)CN(C)CC3` [CBK262588]: 107%.
Regarding `O=c1c2c(nc(NCCO)n1-c1ccccc1)-c1ccccc1CC21CCCCC1` [CBK262589], the viability at 28.5 h, 10 µM came out at 96.4%.
As to `O=C(Cc1ccc(-c2ccccc2)cc1)NCc1cccnc1` [CBK262591], the viability at 28.5 h, 10 µM amounted to 86.4%.
Next, `COc1cccc(OCC(=O)O/N=C(\N)c2ccncc2)c1` [CBK262592]: 91.6%.
Next, `c1ccc2[nH]c(SCCN3CCOCC3)nc2c1` [CBK262593]: 89%; `CCN1CCCC1CNC(=O)c1cc([N+](=O)[O-])c(N(C)C)cc1OC` (stereo not drawn) [CBK262595]: 95.8%.
Next, `CN1C2C=C(N(CCc3ccccc3)C(=O)c3ccc(-c4ccccc4)cc3)CC1CC2` (stereo not drawn) [CBK262596C]: 104%.
Regarding `CN1C2C=C(N(CCc3ccccc3)C(=O)c3ccc(Cl)cc3)CC1CC2` (stereo not drawn) [CBK262604C], the viability at 28.5 h, 10 µM was 94.7%.
Next, `O=C(Nc1ccc(C(=O)Nc2cccc(-c3nc4ccccc4o3)c2)cc1)c1ccc([N+](=O)[O-])cc1` [CBK262606]: 96.6%; `COc1cc(C(=O)N/C(=C\c2ccc(O)cc2)C(=O)O)cc(OC)c1OC` [CBK262607]: 86.2%.
With `COc1ccc(OCC(=O)Nc2cc3oc4ccccc4c3cc2OC)cc1` [CBK262608] the figure was 88.5%.
Next, `O=C(O)CCC(=O)Nc1ccc(Br)cc1C(=O)c1ccccc1` [CBK262610]: 114%; `Cc1ccc(NC(=O)CCC(=O)O)c(C(=O)c2ccccc2)c1` [CBK262611]: 108%; `Cc1cc(C)cc(C(=O)N(CCc2ccccc2)C2CC3CCC(C2)N3C)c1` (stereo not drawn) [CBK262612C]: 83.7%.
For `O=C1c2cc(-c3nc(-c4ccccc4)[nH]c3-c3ccccc3)ccc2-c2ccc([N+](=O)[O-])cc21` [CBK262613], the viability at 28.5 h, 10 µM was determined as 85%.
With `CC(C)N1CCC(=NNC(=O)COc2ccc(Cl)cc2Cl)CC1` [CBK262614] the figure was 83.2%.
Next, `Clc1ccc(-c2nc(-c3ccncc3)no2)c(Cl)c1` [CBK262615]: 83.6%; `COc1ccc(C(=O)NNC(=O)c2cc(OC)cc(OC)c2)cc1` [CBK262616]: 96%; `CC(=O)Nc1ccc(-c2nc(-c3ccc(-c4ccccc4)cc3)c(-c3ccc(-c4ccccc4)cc3)[nH]2)cc1` [CBK262620]: 87.3%.
Take `CCN1CCCC1CNC(=O)c1cccc(Cl)c1` (stereo not drawn) [CBK262621]: the viability at 28.5 h, 10 µM was 84.3%.
With `COC(=O)c1sc(NC(=O)C2CCCO2)c(C(=O)OC)c1C` (stereo not drawn) [CBK262622] the figure was 88%.
Next, `O=C(NNC(=O)C(O)c1ccccc1)NC1CCCCC1` (stereo not drawn) [CBK262625]: 106%.
With `CCOC(=O)c1c(NC(=O)c2cc(-c3ccc(C)c(C)c3)nc3ccccc23)sc2c1CCC(C)C2` (stereo not drawn) [CBK262627] the figure was 96.4%.
In the case of `Cc1cccc(-c2cc(C(=O)Nc3sc4c(c3C#N)CCCCCC4)c3ccccc3n2)c1` [CBK262632], the viability at 28.5 h, 10 µM turned out to be 103%.
Next, `Cc1c(-c2ccc(Cl)cc2Cl)nc2ccccc2c1C(=O)NCCC(c1ccccc1)c1ccccc1` [CBK262634]: 99.7%.
Next, `Cc1ccc(-c2cc(C(=O)Nc3ccc(S(=O)(=O)Nc4nccs4)cc3)c3ccccc3n2)c(C)c1` [CBK262638]: 85.3%; `NC(=O)c1ccc(NC(=O)c2sc3ccccc3c2Cl)cc1` [CBK262643]: 90.8%.
Next, `O=C(NCCCn1ccnc1)c1cc(-c2ccc(Br)cc2)nc2ccccc12` [CBK262645]: 84.8%; `CCC1CCc2c(sc(NC(=O)c3cc(-c4ccc(Cl)s4)nc4ccccc34)c2C(N)=O)C1` (stereo not drawn) [CBK262646]: 88.9%; `CCCOC(=O)c1c(NC(=O)c2cc(-c3ccccc3)nc3ccccc23)sc2c1CCC(C)C2` (stereo not drawn) [CBK262647]: 93.9%.
With `O=C(NCCN1CCOCC1)c1cc(-c2ccc(Cl)cc2)nc2ccccc12` [CBK262650], the viability at 28.5 h, 10 µM stood at 96.6%.
Next, `COc1ccc(CC(=O)NNC(=O)Nc2ccc(Cl)c(Cl)c2)cc1` [CBK262652]: 92.6%; `COC(=O)c1c(NC(=O)C2C3C=CC(C3)C2C(=O)O)sc2c1CCCCC2` (stereo not drawn) [CBK262653]: 80.2%.
Next, `COC(=O)c1c(NC(=O)c2cnccn2)sc2c1CCC(C)C2` (stereo not drawn) [CBK262654]: 96.2%; `COC(=O)c1c(NC(=O)C2CC=CCC2C(=O)O)sc2c1CCC(C)C2` (stereo not drawn) [CBK262655]: 101%.
Next, `O=C(NCCCn1ccnc1)c1cc(-c2ccccc2Cl)nc2ccccc12` [CBK262656]: 95.2%; `CCOC(=O)c1sc(NC(=O)Nc2cccc(Cl)c2)c(C(N)=O)c1C` [CBK262658]: 107%; `O=C(O)C1C2C=CC(C2)C1C(=O)N1CCN(C(c2ccccc2)c2ccccc2)CC1` (stereo not drawn) [CBK262659]: 95.2%.
As for `CN1CCC(=NNC(=O)c2cc(O)c(O)c(O)c2)CC1` [CBK262660], the viability at 28.5 h, 10 µM stood at 78.6%.
For `CC(=O)NC(N(C)S(=O)(=O)c1ccc(C)cc1)C(Cl)(Cl)Cl` (stereo not drawn) [CBK262662], the viability at 28.5 h, 10 µM is 93.8%.
With `CC12CN3CC(C)(CN(C1)C3c1cc(Br)ccc1O)C2O` (stereo not drawn) [CBK262664] the figure was 112%; with `CC12CN3CC(C)(CN(C1)C3c1ccc([N+](=O)[O-])cc1)C2` (stereo not drawn) [CBK262665], 95.2%; with `CC(=O)Nc1ccc(-c2nc3c4ccccc4c4ccc(I)cc4c3[nH]2)cc1` [CBK262667], 100%.
Take `NNC(=O)c1cc(O)n[nH]1` [CBK262669]: the viability at 28.5 h, 10 µM was found to be 106%.
Next, `O=C(Nc1cccc(Br)c1)C1CN(S(=O)(=O)c2ccccc2)CCN1S(=O)(=O)c1ccccc1` (stereo not drawn) [CBK262671]: 79.7%; `O=C(Nc1ccc(I)cc1)c1ccc(CN2CCc3ccccc3C2)cc1` [CBK262672]: 101%.
Next, `COc1ccccc1NC(=O)C1CN(S(=O)(=O)c2ccccc2)CCN1S(=O)(=O)c1ccccc1` (stereo not drawn) [CBK262673]: 93.5%.
Regarding `COc1cc(/C=C2\SC(=N)NC2=O)ccc1OCC(=O)O` [CBK262675], the viability at 28.5 h, 10 µM was 88.4%.

The values above are taken from publication PMC12040169 (PLOS Biology, 2025).
